Experimental data from the NIST ThermoML archive (doi:10.1021/je034048e).

Assay: molar heat capacity at constant pressure
Conditions: 101.33 kPa

CCCCCCCC/C=C/CCCCCCCC(=O)OCC(COC(=O)CCCCCCC/C=C/CCCCCCCC)OC(=O)CCCCCCC/C=C/CCCCCCCC [trielaidin]
Crystal
Conditions | molar heat capacity at constant pressure [J/K/mol]
158.51 K | 861.53
161.21 K | 871.27
163.89 K | 883.66
166.55 K | 893.4
169.18 K | 904.91
171.79 K | 914.65
174.38 K | 927.05
176.95 K | 936.79
179.5 K | 947.41
182.03 K | 958.04
184.54 K | 970.43
187.03 K | 978.4
189.51 K | 989.03
191.97 K | 998.77
194.42 K | 1008.5
196.84 K | 1020
199.25 K | 1028.9
201.65 K | 1037.7
206.39 K | 1058.1
208.74 K | 1067.8
211.08 K | 1077.6
213.41 K | 1087.3
215.72 K | 1097.9
218.01 K | 1108.6
220.3 K | 1117.4
222.57 K | 1127.2
224.83 K | 1137.8
227.07 K | 1149.3
229.31 K | 1160.8
231.53 K | 1169.7
233.74 K | 1180.3
235.94 K | 1190.9
238.13 K | 1201.5
240.31 K | 1212.2
242.48 K | 1222.8
244.64 K | 1235.2
246.79 K | 1245.8
248.93 K | 1256.4
251.06 K | 1268.8
253.19 K | 1279.4
255.3 K | 1292.7
257.41 K | 1305.1
259.5 K | 1320.2
261.59 K | 1332.6
263.67 K | 1345.9
265.75 K | 1360.9
267.81 K | 1374.2
269.86 K | 1389.2
271.91 K | 1403.4
273.95 K | 1419.3
275.98 K | 1437.9
278 K | 1454.8
280.02 K | 1471.6
282.03 K | 1489.3
284.04 K | 1509.7
288.03 K | 1543.3
290.02 K | 1560.1
292 K | 1580.5
293.98 K | 1601.7
295.95 K | 1622.1
297.92 K | 1646.9
299.88 K | 1669.9
301.84 K | 1708.9
303.79 K | 1742.5
305.74 K | 1795.7
307.67 K | 1890.4
309.58 K | 2118.8

Small (less than 1 g) adiabatic calorimetry
Conditions | molar heat capacity at constant pressure [J/K/mol]
158.69 K, Metastable crystal | 917.31
160 K, Crystal | 867.72
160 K, Metastable crystal | 920.85
161.6 K, Metastable crystal | 932.36
164.51 K, Metastable crystal | 946.53
167.42 K, Metastable crystal | 962.46
170 K, Crystal | 912
170 K, Metastable crystal | 973.98
170.34 K, Metastable crystal | 977.52
176.16 K, Metastable crystal | 1009.4
179.08 K, Metastable crystal | 1022.7
180 K, Crystal | 947.41
180 K, Metastable crystal | 1027.1
181.99 K, Metastable crystal | 1043
184.9 K, Metastable crystal | 1066.1
187.79 K, Metastable crystal | 1080.2
190 K, Crystal | 991.68
190 K, Metastable crystal | 1097.9
190.66 K, Metastable crystal | 1104.1
193.5 K, Metastable crystal | 1125.4
196.32 K, Metastable crystal | 1147.5
199.11 K, Metastable crystal | 1169.7
200 K, Crystal | 1036
200 K, Metastable crystal | 1177.6
201.89 K, Metastable crystal | 1191.8
204.65 K, Metastable crystal | 1213.9
207.38 K, Metastable crystal | 1237.8
210 K, Crystal | 1071.4
210 K, Metastable crystal | 1257.3
210.1 K, Metastable crystal | 1260
212.79 K, Metastable crystal | 1280.3
215.47 K, Metastable crystal | 1303.4
218.13 K, Metastable crystal | 1322.8
220 K, Crystal | 1115.6
220 K, Metastable crystal | 1337
220.78 K, Metastable crystal | 1343.2
223.41 K, Metastable crystal | 1362.7
226.02 K, Metastable crystal | 1384.8
228.62 K, Metastable crystal | 1405.2
230 K, Crystal | 1159.9
230 K, Metastable crystal | 1416.7
231.2 K, Metastable crystal | 1423.8
233.77 K, Metastable crystal | 1443.3
236.32 K, Metastable crystal | 1463.6
238.87 K, Metastable crystal | 1484
240 K, Crystal | 1213
240 K, Metastable crystal | 1496.4
241.4 K, Metastable crystal | 1503.5
243.91 K, Metastable crystal | 1523.8
246.41 K, Metastable crystal | 1545.1
248.9 K, Metastable crystal | 1565.4
250 K, Crystal | 1266.2
250 K, Metastable crystal | 1576.1
251.38 K, Metastable crystal | 1586.7
253.84 K, Metastable crystal | 1607.9
256.3 K, Metastable crystal | 1629.2
258.74 K, Metastable crystal | 1653.1
260 K, Crystal | 1319.3
260 K, Metastable crystal | 1664.6
261.18 K, Metastable crystal | 1675.2
263.6 K, Metastable crystal | 1697.4
266.01 K, Metastable crystal | 1717.7
268.41 K, Metastable crystal | 1732.8
270 K, Crystal | 1390.1
270 K, Metastable crystal | 1744.3
270.81 K, Metastable crystal | 1742.5
273.2 K, Metastable crystal | 1738.1
280 K, Crystal | 1469.8
280 K, Metastable crystal | 1815.1
288 K, Crystal | 1549.5
288 K, Metastable crystal | 1886
290 K, Crystal | 1558.4
298.15 K, Crystal | 1646.9
300 K, Crystal | 1673.5
310 K, Crystal | 1762
314.83 K, Crystal | 1806.3
314.83 K, Liquid | 1877.1
317.71 K, Liquid | 1884.2
318.99 K, Liquid | 1886.9
320 K, Liquid | 1894.8
320.03 K, Liquid | 1891.3
321 K, Liquid | 1895.7
322.34 K, Liquid | 1893.9
323.01 K, Liquid | 1896.6
324.66 K, Liquid | 1901.9
325.03 K, Liquid | 1902.8
326.98 K, Liquid | 1907.2
327.05 K, Liquid | 1906.3
329.07 K, Liquid | 1911.6
329.29 K, Liquid | 1913.4
330 K, Liquid | 1912.5
331.09 K, Liquid | 1916.1
331.61 K, Liquid | 1918.7
333.11 K, Liquid | 1918.7
333.92 K, Liquid | 1922.3
335.13 K, Liquid | 1922.3
336.24 K, Liquid | 1926.7
337.15 K, Liquid | 1926.7
338.55 K, Liquid | 1932.9
339.17 K, Liquid | 1933.8
340.87 K, Liquid | 1940.9
343.19 K, Liquid | 1946.2
345.51 K, Liquid | 1950.6
347.83 K, Liquid | 1954.1
350.15 K, Liquid | 1963
